Data: paper PMC10650464, “Natural Compounds Purified from the Leaves of Aristotelia chilensis: Makomakinol, a New Alkaloid and the Effect of Aristoteline and Hobartine on NaV Channels” (International Journal of Molecular Sciences, 2023)
Like-named read-outs stand apart in the source and are kept apart here.

Key:
[1] = system: nAChR subtype α3β4; parameters: method as in PMID 31276409; details: cited from earlier work
[2] = target: T1, human NaV1.8/β3 (Homo sapiens, UniProt Q9Y5Y9); experiment: Automated whole-cell patch-clamp electrophysiology (QPatch-16), NaV1.8; format: cell-based; details: for IC50: CHO cells, mean ± SEM; for V1/2 of voltage-dependence of activation of NaV1.8 / V1/2 of voltage-dependence of steady-state fast inactivation of NaV1.8: compound at 50 µM, compared with control before addition, paired t-test
T1 construct: expressed in transfected cells
Protocol: (§1) Human embryonic kidney (HEK) 293 cells stably expressing human NaV1.7/β1 (SB Drug Discovery, Glasgow, UK) or Chinese hamster ovary (CHO) cells stably expressing human NaV1.8/β3 in a tetracycline-inducible system were cultured in a minimum essential media (MEM) supplemented with 10% fetal bovine serum (FBS), 2 mM l-glutamine, and selection antibiotics as recommended by the manufacturer. To induce hNaV1.8 expression, tetracycline (1 μg/mL) was added to the culture media 72 h prior to the functional assays. The cells were passaged every 3–4 days after reaching a 70–80% confluence using TrypLE Express (Thermo Fisher Scientific, Scoresby, VIC, Australia) and grown in an incubator at 37 °C with 5% CO2. Prior to the electrophysiology experiments, the cells were dissociated with TrypLE Express and resuspended in Dulbecco’s Modified Eagle Medium (DMEM) with 25 mM HEPES, 100 U/mL penicillin-streptomycin, and 0.04 mg/mL of a trypsin inhibitor from Glycine max (soybean), then stirred for 30 min.
Whole-cell patch-clamp experiments were performed on a QPatch-16 automated electrophysiology platform (Sophion Bioscience, Ballerup, Denmark) using single hole (QPlate 16 with a standard resistance of 2 ± 0.4 MΩ for NaV1.7) or multi-hole (QPlate 16× with a standard resistance 0.2 ± 0.04 MΩ for NaV1.8). Whole-cell currents were filtered at 8 kHz and acquired at 25 kHz and the linear leak was corrected using P/4 subtraction (leak potential −90 mV, leak sweep amplitude 10%).
The extracellular solution contained in mM included NaCl 140 (NaCl 70/Choline Chloride 70 for NaV1.7), KCl 4, CaCl2 2, MgCl2 1, HEPES 10, and glucose 10; pH 7.4; osmolarity 305 mOsm. TTX (1 μM) was added to the extracellular solution for the NaV1.8 recordings to inhibit endogenous TTX-sensitive NaV currents in CHO cells. The intracellular solution contained in mM included CsF 140, EGTA/CsOH 1/5, HEPES 10, and NaCl 10; pH 7.3 with CsOH; osmolarity 320 mOsm. Compounds were made up to a 100 mM stock in DMSO and diluted in an extracellular solution at the concentrations stated. Concentration–response curves at the resting state were acquired using a holding potential of −90 mV and a 50 ms test pulse to −20 mV (for NaV1.7) or +10 mV (for NaV1.8) every 20 s (0.05 Hz). Concentration–response curves at the inactivated state were acquired using a holding potential of −90 mV, an 8 s conditioning pulse to −40 mV, a 20 ms recovery pulse to −90 mV, and a 50 ms test pulse to +10 mV every 20 s (0.05 Hz). Peak current was normalized to the buffer control after 2 min incubations of increasing concentrations of the compound (1–100 μM). I–V curves were obtained with a holding potential of −90 mV and a series of 500 ms step pulses that ranged from −80 to +90 mV in 5 mV increments, followed by a 20 ms test pulse to +10 mV to assess the voltage-dependence of the steady-state fast inactivation (repetition interval 5 s). Peak currents were normalized to the buffer control before and after the 5 min incubation of the compound (50 μM).
The data were plotted and analyzed via GraphPad Prism, version 9.5.1. Statistical significance was defined as p < 0.05 and was determined via the paired t-test. Concentration–response curves were fitted with a four-parameter Hill equation with the variable Hill coefficient. Conductance–voltage curves were generated by calculating the conductance (G) at each voltage (V) using the equation G = I/(V − Vrev), where Vrev is the reversal potential. Conductance–voltage and steady-state fast inactivation relationships were fitted using a Boltzmann equation. The data are expressed as the mean ± standard error of the mean (SEM).

[3] = target: human NaV1.7/β1 (Homo sapiens, UniProt Q15858); experiment: Automated whole-cell patch-clamp electrophysiology (QPatch-16), NaV1.7; format: cell-based; details: 50 ms voltage step to −20 mV from −90 mV holding potential; HEK293 cells; mean ± SEM; read-out: IC50, inhibition of NaV1.7 peak current
Protocol: as §1, with “min. […]” for “min.”
The data were plotted and analyzed via GraphPad Prism, version 9.5.1. Statistical significance was defined as p < 0.05 and was determined via the paired t-test. […] The data are expressed as the mean ± standard error of the mean (SEM).

[4] = system: rodent vascular smooth muscle; parameters: method as in PMID 31362388; details: rodent vascular smooth muscle ex vivo; via activation of potassium channels and inhibition of CaV1.2; read-out: IC50, vasodilation; cited from earlier work
[5] = 8 s conditioning voltage step to −40 mV to inactivate approximately half of the available channels, read-out: IC50, inhibition of NaV1.8 peak current after inactivating conditioning step
[6] = resting state: 50 ms voltage step to 10 mV from −90 mV holding potential, read-out: IC50, inhibition of NaV1.8 peak current

T1 sequence (Q9Y5Y9 whole entry): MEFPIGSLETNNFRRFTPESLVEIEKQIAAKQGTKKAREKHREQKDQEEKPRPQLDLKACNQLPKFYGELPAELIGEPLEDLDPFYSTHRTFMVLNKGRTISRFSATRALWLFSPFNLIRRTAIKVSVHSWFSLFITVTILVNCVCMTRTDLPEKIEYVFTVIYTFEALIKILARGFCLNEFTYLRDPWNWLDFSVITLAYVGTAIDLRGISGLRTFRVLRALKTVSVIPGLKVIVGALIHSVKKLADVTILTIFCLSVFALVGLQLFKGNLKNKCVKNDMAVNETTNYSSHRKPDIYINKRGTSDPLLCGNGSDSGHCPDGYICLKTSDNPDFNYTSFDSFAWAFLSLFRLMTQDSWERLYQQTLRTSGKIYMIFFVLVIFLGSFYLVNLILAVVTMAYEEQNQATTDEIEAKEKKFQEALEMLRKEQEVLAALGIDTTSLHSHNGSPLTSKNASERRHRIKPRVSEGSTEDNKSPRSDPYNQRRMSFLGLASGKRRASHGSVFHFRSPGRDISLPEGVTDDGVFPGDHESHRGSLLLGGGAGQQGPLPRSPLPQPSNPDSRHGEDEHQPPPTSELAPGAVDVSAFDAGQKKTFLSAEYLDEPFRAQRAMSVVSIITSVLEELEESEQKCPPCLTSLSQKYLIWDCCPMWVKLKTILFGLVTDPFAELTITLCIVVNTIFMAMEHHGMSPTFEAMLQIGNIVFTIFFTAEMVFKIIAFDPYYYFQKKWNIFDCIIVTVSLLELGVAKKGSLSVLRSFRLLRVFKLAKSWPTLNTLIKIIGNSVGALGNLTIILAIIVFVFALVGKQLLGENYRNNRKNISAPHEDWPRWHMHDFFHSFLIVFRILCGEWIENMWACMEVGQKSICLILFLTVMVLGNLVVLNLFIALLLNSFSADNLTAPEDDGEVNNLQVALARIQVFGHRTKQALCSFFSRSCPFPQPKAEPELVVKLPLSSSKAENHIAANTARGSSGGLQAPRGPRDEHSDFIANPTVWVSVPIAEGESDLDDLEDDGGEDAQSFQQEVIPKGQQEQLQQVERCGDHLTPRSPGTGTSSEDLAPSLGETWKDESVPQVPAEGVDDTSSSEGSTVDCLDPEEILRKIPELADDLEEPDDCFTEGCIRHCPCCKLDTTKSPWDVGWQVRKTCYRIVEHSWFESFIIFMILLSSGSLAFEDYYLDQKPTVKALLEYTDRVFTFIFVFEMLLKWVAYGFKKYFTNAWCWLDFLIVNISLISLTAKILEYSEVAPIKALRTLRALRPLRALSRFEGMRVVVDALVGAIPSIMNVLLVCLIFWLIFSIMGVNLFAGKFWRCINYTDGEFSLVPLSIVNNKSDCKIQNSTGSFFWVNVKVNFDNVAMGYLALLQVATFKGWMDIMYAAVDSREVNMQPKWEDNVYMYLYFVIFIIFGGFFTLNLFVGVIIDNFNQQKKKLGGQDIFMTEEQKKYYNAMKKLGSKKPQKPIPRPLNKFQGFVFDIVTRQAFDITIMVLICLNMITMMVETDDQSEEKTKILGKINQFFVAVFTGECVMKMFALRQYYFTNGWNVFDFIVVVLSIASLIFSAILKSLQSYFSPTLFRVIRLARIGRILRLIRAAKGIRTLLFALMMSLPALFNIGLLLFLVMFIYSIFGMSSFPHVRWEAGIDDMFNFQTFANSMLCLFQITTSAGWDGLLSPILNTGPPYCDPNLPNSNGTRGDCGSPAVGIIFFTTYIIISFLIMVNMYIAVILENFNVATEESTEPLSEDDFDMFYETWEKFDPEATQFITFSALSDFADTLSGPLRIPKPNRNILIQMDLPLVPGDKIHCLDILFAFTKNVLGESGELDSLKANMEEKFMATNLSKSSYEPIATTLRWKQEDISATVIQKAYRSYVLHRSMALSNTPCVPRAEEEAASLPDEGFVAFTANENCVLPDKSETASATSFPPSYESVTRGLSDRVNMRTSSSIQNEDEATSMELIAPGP
T1 sequence (Q9NY72 25-215 partner limits assumed): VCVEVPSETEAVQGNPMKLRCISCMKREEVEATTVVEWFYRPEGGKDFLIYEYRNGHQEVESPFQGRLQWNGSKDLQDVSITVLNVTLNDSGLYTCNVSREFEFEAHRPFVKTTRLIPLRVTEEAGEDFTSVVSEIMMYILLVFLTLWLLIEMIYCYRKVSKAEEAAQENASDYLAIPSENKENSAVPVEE
human NaV1.7/β1, sequence (Q15858 whole entry): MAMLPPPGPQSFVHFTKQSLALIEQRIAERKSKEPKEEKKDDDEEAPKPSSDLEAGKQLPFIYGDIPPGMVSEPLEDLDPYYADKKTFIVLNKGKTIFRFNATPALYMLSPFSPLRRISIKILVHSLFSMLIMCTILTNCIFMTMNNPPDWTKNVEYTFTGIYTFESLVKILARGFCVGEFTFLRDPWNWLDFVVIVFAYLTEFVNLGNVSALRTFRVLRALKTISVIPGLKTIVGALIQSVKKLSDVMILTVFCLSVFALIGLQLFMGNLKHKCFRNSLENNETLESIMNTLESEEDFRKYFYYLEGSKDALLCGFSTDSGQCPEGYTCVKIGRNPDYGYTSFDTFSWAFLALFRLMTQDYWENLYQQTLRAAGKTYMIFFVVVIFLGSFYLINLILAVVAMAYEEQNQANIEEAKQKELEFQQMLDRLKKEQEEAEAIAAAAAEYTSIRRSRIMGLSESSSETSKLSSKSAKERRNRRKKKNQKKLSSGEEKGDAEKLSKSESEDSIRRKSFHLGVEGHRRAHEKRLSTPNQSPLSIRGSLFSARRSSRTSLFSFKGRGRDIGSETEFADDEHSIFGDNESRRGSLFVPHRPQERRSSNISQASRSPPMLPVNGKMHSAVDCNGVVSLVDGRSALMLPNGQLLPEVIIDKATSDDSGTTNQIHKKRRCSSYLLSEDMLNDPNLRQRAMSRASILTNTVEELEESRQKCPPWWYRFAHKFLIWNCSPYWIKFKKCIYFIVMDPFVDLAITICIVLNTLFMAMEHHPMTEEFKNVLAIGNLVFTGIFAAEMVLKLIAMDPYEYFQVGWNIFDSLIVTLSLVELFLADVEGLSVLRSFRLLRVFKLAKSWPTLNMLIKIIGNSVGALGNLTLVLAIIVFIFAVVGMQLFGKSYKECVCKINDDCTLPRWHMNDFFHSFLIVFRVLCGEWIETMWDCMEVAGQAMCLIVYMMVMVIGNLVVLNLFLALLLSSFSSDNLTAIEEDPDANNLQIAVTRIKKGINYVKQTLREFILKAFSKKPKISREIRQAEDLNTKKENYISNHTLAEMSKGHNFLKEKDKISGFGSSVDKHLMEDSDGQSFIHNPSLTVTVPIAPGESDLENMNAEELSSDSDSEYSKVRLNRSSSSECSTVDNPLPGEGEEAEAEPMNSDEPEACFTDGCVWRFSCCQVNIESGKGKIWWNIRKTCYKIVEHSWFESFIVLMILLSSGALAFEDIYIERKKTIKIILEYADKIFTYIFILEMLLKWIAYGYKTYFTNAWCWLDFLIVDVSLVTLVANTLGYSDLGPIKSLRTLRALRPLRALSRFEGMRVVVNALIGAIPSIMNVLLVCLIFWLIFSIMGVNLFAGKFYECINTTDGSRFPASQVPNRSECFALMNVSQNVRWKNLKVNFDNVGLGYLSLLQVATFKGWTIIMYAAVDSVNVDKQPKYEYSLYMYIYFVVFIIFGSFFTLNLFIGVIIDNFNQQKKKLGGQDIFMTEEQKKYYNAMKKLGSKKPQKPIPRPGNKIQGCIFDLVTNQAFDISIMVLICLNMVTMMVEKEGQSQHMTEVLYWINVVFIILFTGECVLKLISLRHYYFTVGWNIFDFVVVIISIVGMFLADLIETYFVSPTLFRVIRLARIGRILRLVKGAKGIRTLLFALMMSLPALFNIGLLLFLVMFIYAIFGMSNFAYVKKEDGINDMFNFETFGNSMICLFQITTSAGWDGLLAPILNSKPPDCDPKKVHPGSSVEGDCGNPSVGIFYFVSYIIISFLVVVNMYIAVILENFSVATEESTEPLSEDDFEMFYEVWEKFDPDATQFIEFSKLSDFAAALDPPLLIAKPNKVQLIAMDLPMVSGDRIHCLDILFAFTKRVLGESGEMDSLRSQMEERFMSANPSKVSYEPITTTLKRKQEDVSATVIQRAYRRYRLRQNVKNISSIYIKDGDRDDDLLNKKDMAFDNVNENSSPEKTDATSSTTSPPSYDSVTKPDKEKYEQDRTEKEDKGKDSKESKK
human NaV1.7/β1, sequence (Q07699 19-218 partner): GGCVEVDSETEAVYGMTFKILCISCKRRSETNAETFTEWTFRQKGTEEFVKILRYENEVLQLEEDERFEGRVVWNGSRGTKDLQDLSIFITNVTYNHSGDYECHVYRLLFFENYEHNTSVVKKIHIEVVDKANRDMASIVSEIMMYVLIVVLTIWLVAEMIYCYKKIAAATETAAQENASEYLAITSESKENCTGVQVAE

Structure (SMILES) | IC50 [1] [µM] | IC50 [2, 5] [µM] | V1/2 of voltage-dependence of activation of NaV1.8 [2] [mV] | V1/2 of voltage-dependence of steady-state fast inactivation of NaV1.8 [2] [mV] | IC50 [2, 6] [µM] | IC50 [3] [µM] | IC50 [4] [µM] | Shift of V1/2 of voltage-dependence of activation of NaV1.8 ([2]; 50 µM, n = 5) [mV]
CC1(C)NC2Cc3c([nH]c4ccccc34)C3(C)CCC1CC23 (stereo not shown) [aristoteline] | 0.4 | 30 ± 6 | 1.0 ± 0.0 | −34.9 ± 1.4 | 68 ± 3 | 49 ± 7 | 16 | 
CC1=CC[C@H]2C[C@@H]1[C@@H](Cc1c[nH]c3ccccc13)NC2(C)C [hobartine] |  | 20 ± 2 | −8.6 ± 0.8 | −41.1 ± 3.8 | 54 ± 1 | 69 ± 3 |  | −9.0
